System: ragwort
Test: Replicated field trials 1997, ragwort control 0-10 score versus 2,4-D (Example 3)
Assay type: in vivo, Senecio Jacobaea
Conditions: for 0-10 Score, 0 = No Control; T1 + 42 / 0-10 Score, 0 = No Control; T1 + 14 / 0-10 Score, 0 = No Control; T1 + 28 / 0-10 Score, 0 = No Control; T1 + 1 / 0-10 Score, 0 = No Control; T1 + 7: l/ha 2,4-D standard; for 0-10 Score, 0 = No Control; T1 + 42: scored 02/09/97; for 0-10 Score, 0 = No Control; T1 + 28: scored 19/08/97
Experimental: In 1997 properly replicated field evaluations of the efficacy of the composition according to the invention as a herbicide were carried out and 3 trial sites were located where the composition was tested against the standard product, 2, 4-D applied at a dose of 3.0 l/ha to individual plants. The trials were designed as a randomised complete block but within each “plot” area, 10 ragwort plants for each growth stage (rosette & flowing stems) were tagged with numbered markers and these were treated with the appropriate compound. […] This method reduced the risk of excessive run-off if eight squirts had been applied in a single application. […] As with the larger plants in the laboratory tests, some degree of re-growth was noted on a few of the treated plants. After the last assessments had been made, some of these plants were retreated with a second application of BH 99 and the effect was compared with untreated plants after a further 4 weeks which data is presented in the results section below.
In all evaluations the composition BH 99 was used comprising:
was applied to plants using the same equipment. The ready-mixed formulated product was contained in a 5 liter polyethylene bottle to which was fitted with a Frapak CHS-5A trigger sprayer and dip tube. This equipment delivers 2.4 mls of spray for each full squeeze of the trigger and provides a very convenient method of application.
In the replicated field trials in 1997, the 2, 4-D treatments were applied using a Hardy (backpack) small plot sprayer fitted with a lance carrying a single F110-03 nozzle. Individual plants were sprayed at a forward speed of 1.6 m/s and a pressure of 2 bar to give an application volume of 200 l/ha. Dose of 2, 4-D applied by this method was 3.0 l/ha.
Replicated Field Trials, 1997: The efficacy of BH 99 was tested against ragwort at the rosette and flowering stages at Shropham and Barnham sites but only against the rosette stage at Hockham since no flowering stems were presented.

[1] = Barnham, Flower, applied T1 23/07/97
[2] = Barnham, Rosette, applied T1 23/07/97
[3] = Hockham, Rosette, applied T1 25/07/97
[4] = flowering stage, standard at 3.0 l/ha, mean of n = 2 sites, 0-10 score
[5] = rosette stage, standard at 3.0 l/ha, mean of n = 3 sites, 0-10 score

## O=C(O)COc1ccc(Cl)cc1Cl [2,4-D, 2,4-D]
3.0 l/ha, days after application
  Time until full activity manifest: 42 days
[1]
  0-10 Score, 0 = No Control; T1 + 42: 9.4
  0-10 Score, 0 = No Control; T1 + 28: 8.9
Barnham, Flower, applied T1 23/07/97, scored 08/08/97
  0-10 Score, 0 = No Control; T1 + 14: 7.3
Barnham, Flower, applied T1 23/07/97, scored 24/07/97
  0-10 Score, 0 = No Control; T1 + 1: 0.3
Barnham, Flower, applied T1 23/07/97, scored 30/07/97
  0-10 Score, 0 = No Control; T1 + 7: 1
[2]
  0-10 Score, 0 = No Control; T1 + 42: 9.9
  0-10 Score, 0 = No Control; T1 + 28: 9.1
Barnham, Rosette, applied T1 23/07/97, scored 08/08/97
  0-10 Score, 0 = No Control; T1 + 14: 4.8
Barnham, Rosette, applied T1 23/07/97, scored 24/07/97
  0-10 Score, 0 = No Control; T1 + 1: 0.1
Barnham, Rosette, applied T1 23/07/97, scored 30/07/97
  0-10 Score, 0 = No Control; T1 + 7: 0.8
Hockham, Rosette, applied T1 25/07/97, scored 01/08/97
  0-10 Score, 0 = No Control; T1 + 7: 0.4
[3]
  0-10 Score, 0 = No Control; T1 + 42: 9.8
  0-10 Score, 0 = No Control; T1 + 28: 5.2
Hockham, Rosette, applied T1 25/07/97, scored 07/08/97
  0-10 Score, 0 = No Control; T1 + 14: 0.8
Hockham, Rosette, applied T1 25/07/97, scored 26/07/97
  0-10 Score, 0 = No Control; T1 + 1: 0.1
[4]
  Mean Score for Ragwort Control When Treated at the Flowering Stage, 1 DAT: 0.3
  Mean Score for Ragwort Control When Treated at the Flowering Stage, 7 DAT: 0.8
  Mean Score for Ragwort Control When Treated at the Flowering Stage, 14 DAT: 4.9
  Mean Score for Ragwort Control When Treated at the Flowering Stage, 28 DAT: 7.4
  Mean Score for Ragwort Control When Treated at the Flowering Stage, 42 DAT: 8.4
[5]
  Mean Score for Ragwort Control When Treated at the Rossette Stage, 1 DAT: 0.1
  Mean Score for Ragwort Control When Treated at the Rossette Stage, 7 DAT: 0.5
  Mean Score for Ragwort Control When Treated at the Rossette Stage, 14 DAT: 2.1
  Mean Score for Ragwort Control When Treated at the Rossette Stage, 28 DAT: 6.9
  Mean Score for Ragwort Control When Treated at the Rossette Stage, 42 DAT: 9.4

— patent publication US6472351B1, “Herbicide” (Barrier Biotech Limited, priority 1998, dated 2002)
